From patent publication US8455519B2, “Drug active in neuropathic pain” (Aziende Chimiche Riunite Angelini Francesco A.C.R.A.F. …, priority 2007, dated 2013)

Key:
[1] = target: 5-HT transporter - SERT (UniProt P31645); test: Binding to the serotoninergic receptors; conditions: purified membranes
Method: (§1) Confirmation of the binding to the serotoninergic receptors was performed by means of the biochemical test on purified membranes from recombinant human cells that stably express the specific receptors or from animal tissues selected as described in particular for each type of serotoninergic receptor, in: Martin G. R. and Humphrey P. P. A. Neuropharmacol. 1994, 33:261; Hoyer D. Eur. J. Pharmacol. 1985, 118:1; Bonhaus DW et al. Br. J. Pharmacol. 1995, 115:622; Wolf WA et al. J. Neurochem. 1997, 69:1449; Boess F G et al. Neuropharmacol. 1997, 36:637; Mialet J et al. Br. J. Pharmacol. 2000; 129:771; Rees S et al. FEBS Lett. 1994, 355:242; Monsma F. J. et al. Mol. Pharmacol. 1993, 43:320; Roth BL et al. J. Pharmacol. Exp. Ther. 1994, 268: 1403; and Shearman L P et al. Am. J. Physiol. 1998, 275: C1621.
(§2) Confirmation of the binding to the serotoninergic receptors was made using purified membranes from selected animal tissues or from recombinant human cells that stably express the specific receptors, as described in: Martin G. R. and Humphrey P. P. A. Neuropharmacol. 1994, 33:261; Hoyer D. Eur. J. Pharmacol. 1985, 118:1; Bonhaus DW et al. Br. J. Pharmacol. 1995, 115:622; Wolf WA et al. J. Neurochem. 1997, 69:1449; Boess FG et al. Neuropharmacol. 1997, 36:637; Mialet J et al. Br. J. Pharmacol. 2000, 129:771; Rees S et al. FEBS Lett. 1994, 355:242; Monsma F. J. et al. Mol. Pharmacol. 1993, 43:320; Roth BL et al. J. Pharmacol. Exp. Ther. 1994, 268: 1403; and Shearman LP et al. Am. J. Physiol. 1998, 275: C1621.

[2] = target: T1, 5-HT1A (Homo sapiens, UniProt P08908); test: Binding to the serotoninergic receptors; conditions: purified membranes
T1 sequence (P08908 1-422): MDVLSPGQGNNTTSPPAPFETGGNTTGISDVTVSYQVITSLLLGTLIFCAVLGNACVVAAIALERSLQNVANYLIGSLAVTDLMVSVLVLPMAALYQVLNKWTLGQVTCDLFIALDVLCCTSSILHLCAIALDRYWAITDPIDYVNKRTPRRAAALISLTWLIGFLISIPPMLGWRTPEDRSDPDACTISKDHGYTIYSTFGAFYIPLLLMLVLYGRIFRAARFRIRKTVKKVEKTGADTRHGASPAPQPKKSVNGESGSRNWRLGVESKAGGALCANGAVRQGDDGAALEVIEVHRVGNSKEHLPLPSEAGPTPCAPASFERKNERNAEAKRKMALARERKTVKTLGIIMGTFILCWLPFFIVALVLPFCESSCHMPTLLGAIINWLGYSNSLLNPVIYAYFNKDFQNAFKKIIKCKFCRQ
Method: as §1, §2

[3] = target: T2, 5-HT1B (Rattus norvegicus, UniProt P28564); test: Binding to the serotoninergic receptors; conditions: purified membranes
T2 construct: purified membranes from selected animal tissues; from tissue; host or cells: animal tissue membranes; rat brain inferred from Hoyer 1985
T2 sequence (P28564 whole entry): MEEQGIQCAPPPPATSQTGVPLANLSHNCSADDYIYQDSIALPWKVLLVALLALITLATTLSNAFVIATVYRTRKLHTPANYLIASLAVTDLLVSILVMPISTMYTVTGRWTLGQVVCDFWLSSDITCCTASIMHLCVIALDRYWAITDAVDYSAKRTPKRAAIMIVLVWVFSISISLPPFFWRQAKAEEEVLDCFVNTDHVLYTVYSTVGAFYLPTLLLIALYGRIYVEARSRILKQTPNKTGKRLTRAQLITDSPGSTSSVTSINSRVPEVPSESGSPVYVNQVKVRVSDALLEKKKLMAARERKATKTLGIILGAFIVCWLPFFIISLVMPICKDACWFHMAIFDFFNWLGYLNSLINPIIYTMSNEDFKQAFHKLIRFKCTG
Method: as §1, §2

[4] = target: T3, 5-HT2A (Homo sapiens, UniProt P28223); test: Binding to the serotoninergic receptors; conditions: purified membranes
T3 construct: expressed in transfected cells
T3 sequence (P28223 whole entry): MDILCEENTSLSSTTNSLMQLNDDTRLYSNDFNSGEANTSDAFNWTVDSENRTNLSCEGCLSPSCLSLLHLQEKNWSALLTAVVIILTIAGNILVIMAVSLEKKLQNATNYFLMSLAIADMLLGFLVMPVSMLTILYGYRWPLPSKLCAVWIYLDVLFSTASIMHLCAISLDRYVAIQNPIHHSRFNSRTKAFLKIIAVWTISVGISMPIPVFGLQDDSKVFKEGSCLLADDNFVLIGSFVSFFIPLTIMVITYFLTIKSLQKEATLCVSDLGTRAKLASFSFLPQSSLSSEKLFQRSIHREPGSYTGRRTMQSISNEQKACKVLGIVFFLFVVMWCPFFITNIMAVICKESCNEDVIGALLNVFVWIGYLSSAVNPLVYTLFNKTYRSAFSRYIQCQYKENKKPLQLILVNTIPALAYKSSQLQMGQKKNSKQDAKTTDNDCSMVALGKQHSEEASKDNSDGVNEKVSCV
Method: as §1, §2

[5] = target: T4, 5-HT2B (Homo sapiens, UniProt P41595); test: Binding to the serotoninergic receptors; conditions: purified membranes
T4 construct: expressed in transfected cells
T4 sequence (P41595 whole entry): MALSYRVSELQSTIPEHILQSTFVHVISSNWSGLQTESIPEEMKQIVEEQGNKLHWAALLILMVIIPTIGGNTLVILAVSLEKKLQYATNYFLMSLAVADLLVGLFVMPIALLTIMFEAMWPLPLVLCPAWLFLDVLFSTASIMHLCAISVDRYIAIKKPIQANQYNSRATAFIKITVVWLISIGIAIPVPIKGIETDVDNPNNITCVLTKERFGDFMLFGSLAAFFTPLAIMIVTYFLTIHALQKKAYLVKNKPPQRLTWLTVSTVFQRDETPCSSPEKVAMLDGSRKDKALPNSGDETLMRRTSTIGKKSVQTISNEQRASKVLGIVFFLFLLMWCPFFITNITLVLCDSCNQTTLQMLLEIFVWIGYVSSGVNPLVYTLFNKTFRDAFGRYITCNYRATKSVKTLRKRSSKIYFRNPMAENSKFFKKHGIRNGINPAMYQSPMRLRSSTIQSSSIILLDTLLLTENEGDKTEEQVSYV
Method: as §1, §2

[6] = target: T5, 5-HT2C (UniProt P28335); test: Binding to the serotoninergic receptors; conditions: purified membranes
T5 sequence (P28335 1-458): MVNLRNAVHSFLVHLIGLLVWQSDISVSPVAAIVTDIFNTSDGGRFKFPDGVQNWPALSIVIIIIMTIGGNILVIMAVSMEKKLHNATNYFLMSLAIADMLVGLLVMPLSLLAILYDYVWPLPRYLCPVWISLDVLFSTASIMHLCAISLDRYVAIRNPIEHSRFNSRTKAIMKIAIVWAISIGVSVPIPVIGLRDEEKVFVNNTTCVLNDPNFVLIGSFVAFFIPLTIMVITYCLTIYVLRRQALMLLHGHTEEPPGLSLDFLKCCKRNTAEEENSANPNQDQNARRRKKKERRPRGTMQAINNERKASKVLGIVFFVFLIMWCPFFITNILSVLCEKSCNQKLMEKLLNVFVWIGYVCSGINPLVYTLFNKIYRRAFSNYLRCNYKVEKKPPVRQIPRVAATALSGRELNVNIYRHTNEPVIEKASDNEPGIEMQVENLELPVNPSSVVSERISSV
Method: as §1, §2

[7] = target: T6, 5-HT3 (UniProt P46098); test: Binding to the serotoninergic receptors; conditions: purified membranes
T6 sequence (P46098 1-478): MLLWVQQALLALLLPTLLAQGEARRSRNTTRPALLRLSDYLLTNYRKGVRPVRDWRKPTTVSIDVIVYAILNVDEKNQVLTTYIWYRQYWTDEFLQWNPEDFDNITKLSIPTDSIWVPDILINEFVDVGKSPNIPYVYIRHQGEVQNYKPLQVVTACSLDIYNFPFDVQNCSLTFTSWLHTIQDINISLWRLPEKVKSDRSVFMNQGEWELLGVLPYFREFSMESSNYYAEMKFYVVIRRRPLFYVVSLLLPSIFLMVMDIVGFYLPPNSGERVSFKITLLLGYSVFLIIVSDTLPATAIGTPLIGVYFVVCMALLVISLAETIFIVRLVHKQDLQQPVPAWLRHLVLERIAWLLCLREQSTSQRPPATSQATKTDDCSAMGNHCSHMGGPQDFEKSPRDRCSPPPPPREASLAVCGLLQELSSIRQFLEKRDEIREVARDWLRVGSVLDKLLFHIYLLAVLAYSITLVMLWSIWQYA
Method: as §1, §2

[8] = target: T7, 5-HT4 receptor (Homo sapiens, UniProt Q13639); test: Binding to the serotoninergic receptors
T7 construct: expressed in transfected cells
T7 sequence (Q13639 1-378 isoform Q13639-5): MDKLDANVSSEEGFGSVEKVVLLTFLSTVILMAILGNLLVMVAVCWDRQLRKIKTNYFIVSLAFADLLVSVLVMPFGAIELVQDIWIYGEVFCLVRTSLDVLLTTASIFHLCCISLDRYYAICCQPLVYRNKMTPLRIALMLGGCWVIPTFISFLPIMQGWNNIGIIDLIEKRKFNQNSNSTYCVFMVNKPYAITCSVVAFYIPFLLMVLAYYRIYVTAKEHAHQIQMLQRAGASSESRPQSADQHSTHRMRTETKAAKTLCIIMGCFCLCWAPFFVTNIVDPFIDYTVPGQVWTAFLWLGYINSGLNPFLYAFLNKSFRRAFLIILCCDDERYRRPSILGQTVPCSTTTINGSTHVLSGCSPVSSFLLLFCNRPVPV
Method: as §1, §2

[9] = target: T8, 5-HT5A (Homo sapiens, UniProt P47898); test: Binding to the serotoninergic receptors; conditions: purified membranes
T8 construct: expressed in transfected cells
T8 sequence (P47898 whole entry): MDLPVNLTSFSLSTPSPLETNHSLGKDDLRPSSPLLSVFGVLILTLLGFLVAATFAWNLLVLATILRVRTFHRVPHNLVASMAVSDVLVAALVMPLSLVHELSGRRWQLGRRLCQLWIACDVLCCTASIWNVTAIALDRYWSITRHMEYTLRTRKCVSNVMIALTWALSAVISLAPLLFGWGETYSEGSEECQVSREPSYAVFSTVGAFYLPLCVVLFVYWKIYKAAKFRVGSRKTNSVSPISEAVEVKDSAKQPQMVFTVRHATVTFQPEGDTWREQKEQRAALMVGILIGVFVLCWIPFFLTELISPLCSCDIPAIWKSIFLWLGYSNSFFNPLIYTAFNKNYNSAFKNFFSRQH
Method: as §1, §2

[10] = target: 5-HT6 (UniProt P50406); test: Binding to the serotoninergic receptors; conditions: purified membranes
Method: as §1, §2

[11] = target: 5-HT7 (UniProt P34969); test: Binding to the serotoninergic receptors; conditions: purified membranes
Chain of 5-HT7 (P34969 1-432 limits assumed): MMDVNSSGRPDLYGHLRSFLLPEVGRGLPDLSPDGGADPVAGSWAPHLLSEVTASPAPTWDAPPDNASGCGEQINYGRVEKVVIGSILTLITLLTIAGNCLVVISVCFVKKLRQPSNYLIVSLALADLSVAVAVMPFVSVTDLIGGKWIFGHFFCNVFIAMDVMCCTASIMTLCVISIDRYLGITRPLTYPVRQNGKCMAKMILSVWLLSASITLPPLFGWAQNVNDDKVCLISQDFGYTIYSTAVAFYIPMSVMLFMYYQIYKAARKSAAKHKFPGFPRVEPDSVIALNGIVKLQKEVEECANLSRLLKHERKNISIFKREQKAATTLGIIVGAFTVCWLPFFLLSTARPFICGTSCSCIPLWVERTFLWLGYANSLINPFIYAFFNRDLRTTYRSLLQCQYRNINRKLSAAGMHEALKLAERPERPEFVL
Method: as §1, §2

[12] = target: T9, hERG ion channel (Homo sapiens, UniProt Q12809); test: cell-based
T9 construct: expressed in transfected cells; host or cells: HEK-293
T9 sequence (Q12809 whole entry): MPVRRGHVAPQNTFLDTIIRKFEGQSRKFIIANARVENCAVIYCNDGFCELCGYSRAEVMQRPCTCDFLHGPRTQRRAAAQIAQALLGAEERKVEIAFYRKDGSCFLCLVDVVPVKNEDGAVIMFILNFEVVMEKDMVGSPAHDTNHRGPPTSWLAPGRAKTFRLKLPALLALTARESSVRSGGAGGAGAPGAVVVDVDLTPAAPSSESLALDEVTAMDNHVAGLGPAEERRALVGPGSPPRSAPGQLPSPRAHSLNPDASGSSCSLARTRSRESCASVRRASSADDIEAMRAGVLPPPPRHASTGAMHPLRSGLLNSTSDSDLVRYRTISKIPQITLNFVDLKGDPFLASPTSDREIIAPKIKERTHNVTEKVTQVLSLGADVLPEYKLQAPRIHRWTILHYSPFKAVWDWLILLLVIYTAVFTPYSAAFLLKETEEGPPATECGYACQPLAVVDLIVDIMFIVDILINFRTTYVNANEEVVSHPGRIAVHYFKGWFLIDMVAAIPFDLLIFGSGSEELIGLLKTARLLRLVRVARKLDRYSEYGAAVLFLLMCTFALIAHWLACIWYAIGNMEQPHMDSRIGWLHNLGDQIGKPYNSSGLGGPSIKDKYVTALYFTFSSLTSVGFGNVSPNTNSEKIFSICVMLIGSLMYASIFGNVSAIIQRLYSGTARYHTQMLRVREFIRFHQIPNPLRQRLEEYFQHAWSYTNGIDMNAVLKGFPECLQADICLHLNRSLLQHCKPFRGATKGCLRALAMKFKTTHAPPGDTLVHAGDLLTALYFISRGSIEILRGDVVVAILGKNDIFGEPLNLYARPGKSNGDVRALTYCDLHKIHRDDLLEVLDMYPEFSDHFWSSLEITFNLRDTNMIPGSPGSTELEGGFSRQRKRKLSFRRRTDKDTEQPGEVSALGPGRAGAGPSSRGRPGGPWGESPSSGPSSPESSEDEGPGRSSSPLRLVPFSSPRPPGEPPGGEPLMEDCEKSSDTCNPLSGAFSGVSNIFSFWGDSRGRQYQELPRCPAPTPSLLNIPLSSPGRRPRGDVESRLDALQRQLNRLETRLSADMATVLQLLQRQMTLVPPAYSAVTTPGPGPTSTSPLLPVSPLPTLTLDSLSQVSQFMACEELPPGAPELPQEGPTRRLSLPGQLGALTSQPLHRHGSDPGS
From the text: Confirmation of interaction with the potassium channels was made by means of a functional cell test (patch clamp) that uses HEK-293 recombinant human cells that stably express the hERG ion channel, as described in Zhou Z. et al. Biophys. J. 1998; 74:230.
Confirmation of interaction with the potassium channels was made by means of the patch clamp test described in Zhou Z. et al. Biophys. J. 1998; 74:230 using the recombinant human cell line HEK-293, which stably expresses the hERG ion channel.

## CC(C)n1nc(C(=O)NCC2CCN(CCc3ccc(C(=O)O)cc3)CC2)c2ccccc21 [Compound 1, 4-{2-[4-({[(1-Isopropyl-1H-indazol-3-yl)carbonyl]amino}methyl)piperidin-1-yl]ethyl}benzoic acid]
[1]
  IC50: > 10 µM
[2]
  IC50: > 10 µM
[3]
  IC50: > 10 µM
[4]
  IC50: > 10 µM
[5]
  IC50: > 10 µM
[6]
  IC50: > 10 µM
[7]
  IC50: > 10 µM
[8]
  IC50: 0.0008 µM
[8]; versus the other serotoninergic receptors
  inhibition of binding to the 5-HT4 receptor (selectivity, in words): selective inhibition of binding to the 5-HT4 receptor
[9]
  IC50: > 10 µM
[10]
  IC50: > 10 µM
[11]
  IC50: > 10 µM
[12]
  IC50: > 50 µM
[12]; human
  inhibition at 0.01 µM: 0%
  inhibition at 0.1 µM: 0%
  inhibition at 1 µM: 0.9%
  inhibition at 10 µM: 6.5%
  inhibition at 50 µM: 18.8%
other
  melting point: 179 to 181 °C
